Organism: Rattus norvegicus
Test: DrugMatrix - Regimen: Daily Repeat
Assay type: toxicity, organism-based, Sprague-Dawley
Parameters: regimen Daily Repeat, gender Male, age 6-8 weeks
Settings: in vivo, po, route oral GAVAGE, vehicle .5 % CMC; for ABSOLUTE BASOPHIL / ABSOLUTE EOSINOPHIL / ABSOLUTE LYMPHOCYTE / ABSOLUTE MONOCYTE / ABSOLUTE SEGMENTED NEUTROPHIL / BASOPHIL / EOSINOPHIL / ERYTHROCYTE COUNT / HEMATOCRIT / HEMOGLOBIN / LEUKOCYTE COUNT / LYMPHOCYTE / MEAN CORPUSCULAR HEMOGLOBIN / MEAN CORPUSCULAR HEMOGLOBIN CONCENTRATION / MEAN CORPUSCULAR VOLUME / MONOCYTE / NEUTROPHIL / NUCLEATED RED BLOOD CELLS / PLATELET COUNT: tissue Blood; for ALANINE AMINOTRANSFERASE / ALBUMIN / ALKALINE PHOSPHATASE / ASPARTATE AMINOTRANSFERASE / BLOOD UREA NITROGEN / CARBON DIOXIDE / CHLORIDE / CHOLESTEROL / CREATINE PHOSPHOKINASE / CREATININE / GLUCOSE / LACTATE DEHYDROGENASE / LIPASE / PHOSPHORUS / POTASSIUM / SODIUM / TOTAL BILIRUBIN / TOTAL PROTEIN / URIC ACID: tissue Plasma
[1] = 385.5 mg/kg, 120 h, dose level Low, time 5 day
[2] = 3855 mg/kg, 72 h, dose level High, time 3 day
[3] = 3855 mg/kg, 120 h, dose level High, time 5 day

Cn1c(=O)c2c(ncn2CC(O)CO)n(C)c1=O (centres undefined) [DYPHYLLINE]
ABSOLUTE BASOPHIL [1]: 0 CELLS/uL
ABSOLUTE EOSINOPHIL [1]: 0 CELLS/uL
ABSOLUTE LYMPHOCYTE [1]: 14849.33 CELLS/uL
ABSOLUTE MONOCYTE [1]: 268.33 CELLS/uL
ABSOLUTE SEGMENTED NEUTROPHIL [1]: 1249 CELLS/uL
BASOPHIL [1]: 0%
EOSINOPHIL [1]: 0%
ERYTHROCYTE COUNT [1]: 5.2 x10E6/uL
HEMATOCRIT [1]: 34.47%
HEMOGLOBIN [1]: 13.7 G/DL
LEUKOCYTE COUNT [1]: 16.37 x10E3/uL
LYMPHOCYTE [1]: 90.67%
MEAN CORPUSCULAR HEMOGLOBIN [1]: 26.37 pg
MEAN CORPUSCULAR HEMOGLOBIN CONCENTRATION [1]: 39.77 G/DL
MEAN CORPUSCULAR VOLUME [1]: 66.3 fL
MONOCYTE [1]: 1.67%
NEUTROPHIL [1]: 7.67%
NUCLEATED RED BLOOD CELLS [1]: 0.33 /100WBC
PLATELET COUNT [1]: 1326 x10E3/uL
ALANINE AMINOTRANSFERASE [1]: 46.67 u/L
ALBUMIN [1]: 4.3 G/DL
ALKALINE PHOSPHATASE [1]: 287 u/L
ASPARTATE AMINOTRANSFERASE [1]: 70.67 u/L
BLOOD UREA NITROGEN [1]: 18.67 mg/dL
CARBON DIOXIDE [1]: 25.33 mmol/L
CHLORIDE [1]: 102.67 MEQ/L
CHOLESTEROL [1]: 75.33 mg/dL
CREATINE PHOSPHOKINASE [1]: 172.67 u/L
CREATININE [1]: 0.18 mg/dL
GLUCOSE [1]: 155 mg/dL
LACTATE DEHYDROGENASE [1]: 103.33 u/L
LIPASE [1]: 10 u/L
PHOSPHORUS [1]: 13.33 mg/dL
POTASSIUM [1]: 6.61 MEQ/L
SODIUM [1]: 146.27 MEQ/L
TOTAL BILIRUBIN [1]: 0.2 mg/dL
TOTAL PROTEIN [1]: 5.93 G/DL
URIC ACID [1]: 1.33 mg/dL
ABSOLUTE BASOPHIL [2]: 0 CELLS/uL
ABSOLUTE EOSINOPHIL [2]: 0 CELLS/uL
ABSOLUTE LYMPHOCYTE [2]: 16214.67 CELLS/uL
ABSOLUTE MONOCYTE [2]: 399.33 CELLS/uL
ABSOLUTE SEGMENTED NEUTROPHIL [2]: 2086 CELLS/uL
BASOPHIL [2]: 0%
EOSINOPHIL [2]: 0%
ERYTHROCYTE COUNT [2]: 5.33 x10E6/uL
HEMATOCRIT [2]: 33.37%
HEMOGLOBIN [2]: 13.57 G/DL
LEUKOCYTE COUNT [2]: 18.7 x10E3/uL
LYMPHOCYTE [2]: 87%
MEAN CORPUSCULAR HEMOGLOBIN [2]: 25.5 pg
MEAN CORPUSCULAR HEMOGLOBIN CONCENTRATION [2]: 40.67 G/DL
MEAN CORPUSCULAR VOLUME [2]: 62.63 fL
MONOCYTE [2]: 2%
NEUTROPHIL [2]: 11%
NUCLEATED RED BLOOD CELLS [2]: 0 /100WBC
PLATELET COUNT [2]: 1235.67 x10E3/uL
ALANINE AMINOTRANSFERASE [2]: 63.67 u/L
ALBUMIN [2]: 4.37 G/DL
ALKALINE PHOSPHATASE [2]: 376 u/L
ASPARTATE AMINOTRANSFERASE [2]: 102 u/L
BLOOD UREA NITROGEN [2]: 14 mg/dL
CARBON DIOXIDE [2]: 25.67 mmol/L
CHLORIDE [2]: 103.33 MEQ/L
CHOLESTEROL [2]: 72 mg/dL
CREATINE PHOSPHOKINASE [2]: 224.33 u/L
CREATININE [2]: 0.18 mg/dL
GLUCOSE [2]: 169.33 mg/dL
LACTATE DEHYDROGENASE [2]: 157.67 u/L
LIPASE [2]: 10 u/L
PHOSPHORUS [2]: 11.3 mg/dL
POTASSIUM [2]: 6.13 MEQ/L
SODIUM [2]: 145.4 MEQ/L
TOTAL BILIRUBIN [2]: 0.17 mg/dL
TOTAL PROTEIN [2]: 5.77 G/DL
URIC ACID [2]: 1.27 mg/dL
ABSOLUTE BASOPHIL [3]: 0 CELLS/uL
ABSOLUTE EOSINOPHIL [3]: 169.33 CELLS/uL
ABSOLUTE LYMPHOCYTE [3]: 15268 CELLS/uL
ABSOLUTE MONOCYTE [3]: 115.33 CELLS/uL
ABSOLUTE SEGMENTED NEUTROPHIL [3]: 1780.67 CELLS/uL
BASOPHIL [3]: 0%
EOSINOPHIL [3]: 1%
ERYTHROCYTE COUNT [3]: 5.34 x10E6/uL
HEMATOCRIT [3]: 34.57%
HEMOGLOBIN [3]: 13.7 G/DL
LEUKOCYTE COUNT [3]: 17.33 x10E3/uL
LYMPHOCYTE [3]: 88%
MEAN CORPUSCULAR HEMOGLOBIN [3]: 25.67 pg
MEAN CORPUSCULAR HEMOGLOBIN CONCENTRATION [3]: 39.63 G/DL
MEAN CORPUSCULAR VOLUME [3]: 64.77 fL
MONOCYTE [3]: 0.67%
NEUTROPHIL [3]: 10.33%
NUCLEATED RED BLOOD CELLS [3]: 0.33 /100WBC
PLATELET COUNT [3]: 1356 x10E3/uL
ALANINE AMINOTRANSFERASE [3]: 67.33 u/L
ALBUMIN [3]: 4.23 G/DL
ALKALINE PHOSPHATASE [3]: 246 u/L
ASPARTATE AMINOTRANSFERASE [3]: 85.67 u/L
BLOOD UREA NITROGEN [3]: 17 mg/dL
CARBON DIOXIDE [3]: 26.33 mmol/L
CHLORIDE [3]: 102.33 MEQ/L
CHOLESTEROL [3]: 58.67 mg/dL
CREATINE PHOSPHOKINASE [3]: 184.33 u/L
CREATININE [3]: 0.16 mg/dL
GLUCOSE [3]: 150.67 mg/dL
LACTATE DEHYDROGENASE [3]: 98.67 u/L
LIPASE [3]: 10 u/L
PHOSPHORUS [3]: 11.47 mg/dL
POTASSIUM [3]: 6.42 MEQ/L
SODIUM [3]: 144.77 MEQ/L
TOTAL BILIRUBIN [3]: 0.2 mg/dL
TOTAL PROTEIN [3]: 5.77 G/DL
URIC ACID [3]: 1 mg/dL
